# Source: EPA's ToxRefDB 2
# How the values were obtained:
# [1] = tested on: rat; conditions: Sub-acute repeat dose toxicity, sprague dawley, Oral, Gavage/Intubation, dose end: 28 day, group: systemic
# [2] = tested on: rat; conditions: Prenatal developmental toxicity study, sprague dawley, Oral, Gavage/Intubation, dose end: 17 GD
# [3] = tested on: rat; conditions: Prenatal developmental toxicity study, sprague dawley, Oral, Gavage/Intubation, dose end: 17 GD; remark: listed apart in the source
# [4] = tested on: dog; conditions: Sub-acute repeat dose toxicity, beagle, Oral, Gavage/Intubation, dose end: 4 week, group: systemic
# [5] = tested on: rabbit; conditions: Prenatal developmental toxicity study, new zealand white, Oral, Gavage/Intubation, dose end: 19 GD
# [6] = tested on: mouse; conditions: Subchronic oral toxicity in rodents, b6c3f1, Gavage/Intubation, dose end: 17 week, group: systemic
# [7] = tested on: rat; conditions: Subchronic oral toxicity in rodents, fischer, Gavage/Intubation, dose end: 17 week, group: systemic
# [8] = tested on: mouse; conditions: Combined chronic toxicity/carcinogenicity, other, Oral, Feed, dose end: 24 month, group: systemic
# [9] = tested on: dog; conditions: Chronic toxicity, beagle, Oral, Feed, dose end: 12 month, group: systemic
# [10] = tested on: rat; conditions: Chronic toxicity; sprague dawley; Oral; Feed; dose end: 52 week; group: systemic; systemic / pathology microscopic / liver / hypertrophy + systemic / pathology microscopic / thyroid gland / colloid content + systemic / …
# [11] = systemic / clinical chemistry / alanine aminotransferase (alt/sgpt) / alanine aminotransferase (alt/sgpt) + systemic / clinical chemistry / …
# [12] = systemic / hematology / platelet / platelet + systemic / in life observation / clinical signs / hunched posture + systemic / pathology …
# [13] = group: developmental, developmental / developmental malformation / brain / dilated cerebral ventricle
# [14] = group: developmental, developmental / developmental malformation / brain / dilated cerebral ventricle + developmental / developmental malformation / bone / …
# [15] = group: maternal, reproductive / reproductive performance / postimplantation loss / postimplantation loss + systemic / in life observation / body weight / …
# [16] = group: developmental, systemic / in life observation / body weight / fetal weight
# [17] = group: maternal, systemic / in life observation / body weight / body weight gain + systemic / in life observation / food consumption / food consumption + …
# [18] = systemic / clinical chemistry / chloride / chloride + systemic / hematology / eosinophils / eosinophils + systemic / hematology / …
# [19] = systemic / in life observation / body weight / body weight + systemic / in life observation / clinical signs / defecation (diarrhea) + …
# [20] = group: maternal, reproductive / reproductive performance / postimplantation loss / postimplantation loss + reproductive / reproductive performance / …
# [21] = systemic / hematology / leukocyte (wbc) count differential / leukocyte (wbc) + systemic / hematology / lymphocyte / lymphocyte
# [22] = systemic / hematology / leukocyte (wbc) count differential / leukocyte (wbc) + systemic / hematology / lymphocyte / lymphocyte + systemic / …
# [23] = systemic / in life observation / clinical signs / feces, discoloration
smiles,measurement,setting,value
N#C[C@@H]1CC(F)(F)CN1C(=O)CNC1CC2CCC(C1)N2c1ncccn1 (some centres not stated),LOAEL,[1]; [11],> 450 mg/kg/day
same,NOAEL,[1]; [11],≥ 450 mg/kg/day
same,LEL,[1]; [12],50 mg/kg/day
same,NEL,[1]; [12],< 50 mg/kg/day
same,LEL,[2]; [13],100 mg/kg/day
same,LOAEL,[2]; [13],100 mg/kg/day
same,NEL,[2]; [14],50 mg/kg/day
same,NOAEL,[2]; [14],50 mg/kg/day
same,LOAEL,[2]; [15],150 mg/kg/day
same,NEL,[2]; [15],50 mg/kg/day
same,NOAEL,[2]; [15],100 mg/kg/day
same,LEL,"[2]; group: maternal, systemic / in life observation / body weight / body weight gain",100 mg/kg/day
same,LEL,[3]; [16],100 mg/kg/day
same,LOAEL,[3]; [16],100 mg/kg/day
same,NEL,[3]; [16],< 100 mg/kg/day
same,NOAEL,[3]; [16],< 100 mg/kg/day
same,LEL,[3]; [17],200 mg/kg/day
same,LOAEL,[3]; [17],200 mg/kg/day
same,NEL,[3]; [17],100 mg/kg/day
same,NOAEL,[3]; [17],100 mg/kg/day
same,LOAEL,[4]; [18],> 30 mg/kg/day
same,NOAEL,[4]; [18],≥ 30 mg/kg/day
same,LEL,[4]; [19],3 mg/kg/day
same,NEL,[4]; [19],< 3 mg/kg/day
same,LEL,[5]; [16],500 mg/kg/day
same,LOAEL,[5]; [16],> 1500 mg/kg/day
same,NEL,[5]; [16],< 500 mg/kg/day
same,NOAEL,[5]; [16],≥ 1500 mg/kg/day
same,LEL,[5]; [20],500 mg/kg/day
same,LOAEL,[5]; [20],> 1500 mg/kg/day
same,NEL,[5]; [20],< 500 mg/kg/day
same,NOAEL,[5]; [20],≥ 1500 mg/kg/day
c1ccccc1 [Benzene],LEL,[6]; [21],50 mg/kg/day
same,LOAEL,[6]; [22],> 600 mg/kg/day
same,NEL,[6]; [22],25 mg/kg/day
same,NOAEL,[6]; [22],≥ 600 mg/kg/day
same,LEL,[7]; [21],25 mg/kg/day
same,NEL,[7]; [21],< 25 mg/kg/day
same,LOAEL,[7]; [22],> 600 mg/kg/day
same,NOAEL,[7]; [22],≥ 600 mg/kg/day
CC(CCl)OC(C)CCl (configuration not stated) [Bis(2-chloro-1-methylethyl) ether],LOAEL,[8]; [11],> 927 mg/kg/day
same,NEL,[8]; [11],8.41 mg/kg/day
same,NOAEL,[8]; [11],≥ 927 mg/kg/day
same,LEL,[8]; systemic / hematology / leukocyte (wbc) count differential / leukocyte (wbc),40.1 mg/kg/day
"CC1(C)C(=O)N(Cl)C(=O)N1Br [Bromo-3-chloro-5,5-dimethylhydantoin]",LEL,[9]; [23],120 mg/kg/day
same,NEL,[9]; [23],< 120 mg/kg/day
same,LOAEL,[9]; systemic / pathology microscopic / adrenal gland / hypertrophy,1510 mg/kg/day
same,NOAEL,"[9]; systemic / pathology microscopic / adrenal gland / hypertrophy + systemic / in life observation / clinical signs / feces, discoloration + …",342 mg/kg/day
C/C=C/C(=O)Oc1ccccc1[N+](=O)[O-].CCCCCCCC.O=NO [Dinocap],LEL,[10],121 mg/kg/day
same,LOAEL,[10],121 mg/kg/day
same,NEL,[10],11.4 mg/kg/day
same,NOAEL,[10],11.4 mg/kg/day
